Laboratory results as given in publication PMC8472287, “Betulinic Acid Decorated with Polar Groups and Blue Emitting BODIPY Dye: Synthesis, Cytotoxicity, Cell-Cycle Analysis and Anti-HIV Profiling” (Biomedicines, 2021).
Where a name gives a salt, the structure may show the parent alone. Read-outs that look alike come from different tables or passages of the source.

What was measured:
BJ = test: MTS cytotoxicity assay, BJ; type: cell-based; conditions: Homo sapiens, 72 h, BJ normal fibroblasts, 3-day incubation
Text: (§1) All cells (if not indicated otherwise) were purchased from the American Tissue Culture Collection (ATCC; Manassas, VA, USA). The highly chemosensitive CCRF-CEM line is derived from T lymphoblastic leukaemia, K562 represent cells of chronic myelogenous leukaemia. Colorectal adenocarcinoma HCT116 cell line and its p53 gene knockout counterpart (HCT116p53−/−, Horizon Discovery Ltd., Cambridge, UK) were used as models to assess the impact of p53 deficiency on cell line sensitivity. A549 cells are derived from lung adenocarcinoma and U2OS from human osteosarcoma. CEM-DNR and K562-Tax are well-characterized daunorubicin and paclitaxel-resistant sublines of CCRF-CEM and K562. The CEM-DNR resistant cells overexpress the P-glycoprotein and LRP protein, the K562-Tax overexpress P-glycoprotein but is losing the expression of LRP, which is present at parental K562 cell line. P-glycoprotein belongs to the ABC transporters’ family and is involved in the primary and acquired multidrug resistance phenomenon by the efflux of toxic compounds, LRP protein is involved in the lysosomal degradation. MRC-5 and BJ cell lines were used as a non-tumour control and represent human fibroblasts. The cells were maintained in Nunc/Corning 80 cm^2 plastic tissue culture flasks and cultured in cell culture medium according to ATCC or Horizon recommendations (DMEM/RPMI 1640 with 5 g/L-glucose, 2 mM glutamine, 100 U/mL penicillin, […] streptomycin, 10% fetal calf serum, and NaHCO3).
(§2) To perform the cytotoxicity MTS assay, cell suspensions were prepared and diluted according to the cell type and the expected target cell density (25,000–35,000 cells/mL) based on cell growth characteristics. Cells were added by an automatic pipettor (30 μL) into 384 well microtiter plates. All tested compounds were dissolved in 100% DMSO and four-fold dilutions of the intended test concentration were added in 0.15 μL aliquots at time zero to the microtiter plate wells by the echo-acoustic liquid handler Echo550 (Labcyte, San Jose, CA, USA). The experiments were performed in technical duplicates and at least three biological replicates. The cells were incubated with the tested compounds for 72 h at 37 °C, in a 5% CO2 atmosphere at 99% humidity. At the end of the incubation period, the cells were assayed by using the MTS test. Aliquots (5 µL) of the MTS stock solution were pipetted into each well and incubated for an additional 1–4 h. After this incubation period, the optical density (OD) was measured at 490 nm with an Envision microplate reader (Perkin Elmer, Waltham, Massachusetts, USA). Tumour cell survival (TCS) was calculated using the following equation: TCS = (ODdrug-exposed well/mean ODcontrol wells) × 100%.

in vitro = conditions: human
CEM-DNR = test: MTS cytotoxicity assay, CEM-DNR; type: cell-based; conditions: Homo sapiens, 72 h, CEM-DNR (daunorubicin resistant), 3-day incubation
Text: as §1, §2

K562-Tax = test: MTS cytotoxicity assay, K562-Tax; type: cell-based; conditions: Homo sapiens, 72 h, K562-Tax (paclitaxel-resistant), 3-day incubation
Text: as §1, §2

K562 = test: MTS cytotoxicity assay, K562; type: cell-based; conditions: Homo sapiens, 72 h, 3-day incubation
Text: as §1, §2

MRC-5 = test: MTS cytotoxicity assay, MRC-5; type: cell-based; conditions: Homo sapiens, MRC5, 72 h, MRC-5 normal fibroblasts, 3-day incubation
Text: as §1, §2

HCT116 = test: MTS cytotoxicity assay, HCT116; type: cell-based; conditions: Homo sapiens, HCT-116, 72 h, 3-day incubation
Text: as §1, §2

[1] = system: VSV-G pseudotyped HIV-1 particles; test: microbe, parasite or virus in culture; type: cell-based; conditions: for IC50: read-out: IC50i (50% infection inhibition)
HCT116p53−/− = test: MTS cytotoxicity assay, HCT116p53−/−; type: cell-based; conditions: Homo sapiens, HCT116-p53-null, 72 h, HCT116p53−/− (null p53 gene), 3-day incubation
Text: as §1, §2

U2OS = test: MTS cytotoxicity assay, U2OS; type: cell-based; conditions: Homo sapiens, 72 h, 3-day incubation
Text: as §1, §2

CCRF-CEM lymphoblasts = test: BrU incorporation analysis (RNA synthesis); type: cell-based, human; conditions: 24 h, 5 × IC50 (high concentration)
[2] = system: CA-SP1 processing of HIV-1 Gag polyprotein; test: Western blot of released virions with anti-HIV-1 CA antibody; type: cell-based
CCRF-CEM = test: MTS cytotoxicity assay, CCRF-CEM; type: cell-based; conditions: Homo sapiens, 72 h, 3-day incubation
Text: as §1, §2

A549 = test: MTS cytotoxicity assay, A549; type: cell-based; conditions: Homo sapiens, 72 h, 3-day incubation
Text: as §1, §2

[3] = Human immunodeficiency virus 1, HEK293, 48 h

Structure (SMILES) | IC50 (BJ) | IC50 (in vitro) | cytotoxic effect in the cell line panel (in words) (entire cell line panel) | IC50 (CEM-DNR) | IC50 (K562-Tax) | IC50 (K562) | IC50 (MRC-5) | IC50 (HCT116) | IC50 [1, 3] | IC50 [1] | IC50 (HCT116p53−/−) | IC50 (U2OS) | RNA synthesis by BrU (in words) (CCRF-CEM lymphoblasts) | CA forms identified in released viruses (CA-SP1 processing) [2] | IC50 (CCRF-CEM) | IC50 (A549) | anti-HIV-1 activity (in words) [1]
C=C(C)[C@@H]1CC[C@]2(C(=O)N3CCN(CCN)CC3)CC[C@]3(C)[C@H](CC[C@@H]4[C@@]5(C)CC[C@H](OC(=O)CC(C)(C)C(=O)O)C(C)(C)[C@@H]5CC[C@]43C)[C@@H]12 [Compound 17, 4-{[(3β)-28-[4-(2-Aminoethyl)piperazine-1-yl]-28-oxolup-20(29)-ene-3-yl]oxy}-2,2-dimethyl-4-oxobutanoic acid hydrochloride] | > 50 µM | > 40 µM | inactive | > 50 µM | > 50 µM | > 50 µM | > 50 µM | > 50 µM | < 10 µM | 7.6 µM | > 50 µM | 44.6 µM | stalled RNA synthesis | not only fully processed p24 CA, but also p25 CA-SP1 protein | 5.76 µM | > 50 µM | –
C=C(C)[C@@H]1CC[C@]2(C(=O)N3CCN(CCNC4=C5C=CC=[N+]5[B-](F)(F)n5cccc54)CC3)CC[C@]3(C)[C@H](CC[C@@H]4[C@@]5(C)CC[C@H](O)C(C)(C)[C@@H]5CC[C@]43C)[C@@H]12 [Compound 15, (3β)-28-{4-[N-(4,4-Difluoro-4-bora-3a,4a-diaza-s-indacene-8-yl)-2-aminoethyl]piperazine-1-yl}-3-hydroxylup-20(29)-ene-28-one] | – | > 40 µM | did not induce any cytotoxic effect | – | – | – | – | – | > 50 µM | – | – | – | – | – | – | – | did not exhibit any potent anti-HIV-1 activity
C=C(C)[C@@H]1CC[C@]2(C(=O)N3CCN(CCNC(=O)OC(C)(C)C)CC3)CC[C@]3(C)[C@H](CC[C@@H]4[C@@]5(C)CC[C@H](OC(=O)CC(C)(C)C(=O)O)C(C)(C)[C@@H]5CC[C@]43C)[C@@H]12 [Compound 16, 4-{[(3β)-28-(4-{2-[(Tert-butoxycarbonyl)amino]ethyl}piperazine-1-yl)-28-oxolup-20(29)-ene-3-yl]oxy}-2,2-dimethyl-4-oxobutanoic acid] | 47.6 µM | > 40 µM | did not induce any cytotoxic effect | > 50 µM | > 50 µM | 47.9 µM | 44.6 µM | 46.6 µM | < 10 µM | 9.1 µM | 44.8 µM | 44.6 µM | – | not only fully processed p24 CA, but also p25 CA-SP1 protein | > 50 µM | 44.9 µM | –
C=C(C)[C@@H]1CC[C@]2(C(=O)N3CCN(CCNC(=O)OC(C)(C)C)CC3)CC[C@]3(C)[C@H](CC[C@@H]4[C@@]5(C)CC[C@H](O)C(C)(C)[C@@H]5CC[C@]43C)[C@@H]12 [Compound 13, Tert-butyl-(2-{4-[(3β)-3-hydroxy-28-oxolup-20(29)-ene-28-yl]piperazine-1-yl}ethyl)-carbamate] | 5.36 µM | > 40 µM | high cytotoxicity | 4.76 µM | 8.77 µM | 5.09 µM | 5.18 µM | 6.02 µM | > 50 µM | – | 4.99 µM | 4.16 µM | – | – | > 50 µM | 5.15 µM | did not exhibit any potent anti-HIV-1 activity
C=C(C)[C@@H]1CC[C@]2(C(=O)NCCCN=[N+]=[N-])CC[C@]3(C)[C@H](CC[C@@H]4[C@@]5(C)CC[C@H](OC(=O)CCNC6=C7C=CC=[N+]7[B-](F)(F)n7cccc76)C(C)(C)[C@@H]5CC[C@]43C)[C@@H]12 [Compound 5, (3β)-N-(3-Azidopropyl)-3-[N´-(4,4-difluoro-4-bora-3a,4a-diaza-s-indacene-8-yl)-β-alanyl]-oxy-lup-20(29)-ene-28-amide] | – | > 40 µM | did not induce any cytotoxic effect | – | – | – | – | – | > 50 µM | – | – | – | – | – | – | – | did not exhibit any potent anti-HIV-1 activity
C=C(C)[C@@H]1CC[C@]2(C(=O)NCCCN=[N+]=[N-])CC[C@]3(C)[C@H](CC[C@@H]4[C@@]5(C)CC[C@H](O)C(C)(C)[C@@H]5CC[C@]43C)[C@@H]12 [Compound 1, (3β)-N-(3-Azidopropyl)-3-hydroxylup-20(29)-ene-28-amide] | > 50 µM | > 40 µM | activity only against selected cell lines | 16.8 µM | 10.6 µM | > 50 µM | > 50 µM | > 50 µM | > 50 µM | – | > 50 µM | 29 µM | – | – | 8.98 µM | > 50 µM | did not exhibit any potent anti-HIV-1 activity
C=C(C)[C@@H]1CC[C@]2(C(=O)O)CC[C@]3(C)[C@H](CC[C@@H]4[C@@]5(C)CC[C@H](OC(=O)CC(C)(C)C(=O)O)C(C)(C)[C@@H]5CC[C@]43C)[C@@H]12 [BT, 3-O-(3,3-dimethylsuccinyl) betulinic acid, reference compound] | > 50 µM | – | weak or medium cytotoxic effect | 22.2 µM | 22 µM | 23.6 µM | > 50 µM | 14.2 µM | – | – | 18.2 µM | 27.6 µM | – | – | 12.8 µM | 23.1 µM | –
C=C(C)[C@@H]1CC[C@]2(C(=O)NCCCNC(=O)OC(C)(C)C)CC[C@]3(C)[C@H](CC[C@@H]4[C@@]5(C)CC[C@H](O)C(C)(C)[C@@H]5CC[C@]43C)[C@@H]12 [Compound 7, Tert-butyl-(3-{[(3β)-3-hydroxy-28-oxolup-20(29)-ene-28-yl]amino}propyl)-carbamate] | 20.7 µM | > 40 µM | activity only against selected cell lines | > 50 µM | > 50 µM | > 50 µM | 17.6 µM | > 50 µM | > 50 µM | – | > 50 µM | 18.4 µM | – | – | > 50 µM | 21.3 µM | did not exhibit any potent anti-HIV-1 activity
C=C(C)[C@@H]1CC[C@]2(C(=O)NCCCN)CC[C@]3(C)[C@H](CC[C@@H]4[C@@]5(C)CC[C@H](OC(=O)CC(C)(C)C(=O)O)C(C)(C)[C@@H]5CC[C@]43C)[C@@H]12 [Compound 9, 4-{[(3β)-28-[(3-Aminopropyl)amino]-28-oxolup-20(29)-ene-3-yl]oxy}-2,2-dimethyl-4-oxo-butanooic acid hydrochloride] | > 50 µM | > 40 µM | inactive | > 50 µM | > 50 µM | > 50 µM | > 50 µM | > 50 µM | 14 µM | – | > 50 µM | > 50 µM | – | not only fully processed p24 CA, but also p25 CA-SP1 protein | 22.5 µM | > 50 µM | –
